#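 96-well plates; 48 h exposure; 5 concentrations. Endpoints by linear interpolation between flanking doses. Not reached: highest tested concentration assigned. Here, GI50 denotes the concentration required for 50% inhibition of growth.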 The source made the active and inactive calls. Cut-off read from the data, not from the text of the source: active = GI50 up to about 1.1 µM and inactive = higher.
# Columns and labels:
# Test in all cases: DTP human tumour cell line panel, 48 h
# [1] = system: 786-0
# [2] = system: A498
# [3] = system: A549
# [4] = system: ACHN
# [5] = system: CAKI-1
# [6] = system: CCRF-CEM
# [7] = system: COLO 205
# [8] = system: DLD-1
# [9] = system: DMS-114
# [10] = system: DMS-273
# [11] = system: HCC 2998
# [12] = system: HCT-116
# [13] = system: HCT-15
# [14] = system: HL-60
# [15] = system: HOP-18
# [16] = system: HOP-62
# [17] = system: HOP-92
# [18] = system: HT-29
# [19] = system: IGROV-1
# [20] = system: K562
# [21] = system: KM-20L2
# [22] = system: KM12
# [23] = system: LOX IMVI
# [24] = system: LXFL 529
# [25] = system: M14
# [26] = system: MOLT-4
# [27] = system: Malme-3M
# [28] = system: NCI-H23
# [29] = system: NCI-H460
# [30] = system: NCI-H522
# [31] = system: OVCAR-3
# [32] = system: OVCAR-4
# [33] = system: OVCAR-5
# [34] = system: OVCAR-8
# [35] = system: RPMI-8226
# [36] = system: RXF 393
# [37] = system: SF-268
# [38] = system: SF-295
# [39] = system: SF-539
# [40] = system: SK-MEL-28
# [41] = system: SK-MEL-2
# [42] = system: SK-MEL-5
# [43] = system: SK-OV-3
# [44] = system: SN12C
# [45] = system: SNB-19
# [46] = system: SNB-75
# [47] = system: SW-620
# [48] = system: TK-10
# [49] = system: U-251
# [50] = system: UACC-62
# [51] = system: UO-31
# [52] = system: EKVX
# [53] = system: M19-MEL
# [54] = system: NCI-H226
# [55] = system: SNB-78
# [56] = system: SR
# [57] = system: UACC-257
# [58] = system: DU-145
# [59] = system: Hs-578T
# [60] = system: MCF7
# [61] = system: MDA-MB-231
# [62] = system: MDA-MB-435
# [63] = system: NCI/ADR-RES
# [64] = system: T47D
# [65] = system: XF498
smiles,measurement,setting,value
Sc1ncnc2c1ncn2C1CCCO1 (stereo not given),GI50,[1],> 100 µM (inactive)
same,GI50,[2],> 100 µM (inactive)
same,GI50,[3],> 100 µM (inactive)
same,GI50,[4],> 100 µM (inactive)
same,GI50,[5],> 100 µM (inactive)
same,GI50,[6],> 100 µM (inactive)
same,GI50,[7],> 100 µM (inactive)
same,GI50,[8],89.9 µM (inactive)
same,GI50,[9],65.8 µM (inactive)
same,GI50,[10],76.2 µM (inactive)
same,GI50,[11],> 100 µM (inactive)
same,GI50,[12],55.5 µM (inactive)
same,GI50,[13],> 100 µM
same,GI50,[14],> 100 µM (inactive)
same,GI50,[15],> 100 µM (inactive)
same,GI50,[16],64.4 µM (inactive)
same,GI50,[17],39.3 µM (inactive)
same,GI50,[18],> 100 µM (inactive)
same,GI50,[19],> 100 µM (inactive)
same,GI50,[20],38.8 µM (inactive)
same,GI50,[21],> 100 µM (inactive)
same,GI50,[22],> 100 µM (inactive)
same,GI50,[23],37.6 µM (inactive)
same,GI50,[24],> 100 µM (inactive)
same,GI50,[25],43.3 µM (inactive)
same,GI50,[26],> 100 µM (inactive)
same,GI50,[27],> 100 µM (inactive)
same,GI50,[28],> 100 µM (inactive)
same,GI50,[29],> 100 µM (inactive)
same,GI50,[30],64.6 µM (inactive)
same,GI50,[31],22.6 µM (inactive)
same,GI50,[32],51.1 µM (inactive)
same,GI50,[33],> 100 µM (inactive)
same,GI50,[34],> 100 µM (inactive)
same,GI50,[35],99.5 µM (inactive)
same,GI50,[36],> 100 µM (inactive)
same,GI50,[37],> 100 µM (inactive)
same,GI50,[38],> 100 µM (inactive)
same,GI50,[39],> 100 µM (inactive)
same,GI50,[40],> 100 µM (inactive)
same,GI50,[41],> 100 µM (inactive)
same,GI50,[42],> 100 µM (inactive)
same,GI50,[43],35.8 µM (inactive)
same,GI50,[44],> 100 µM (inactive)
same,GI50,[45],> 100 µM (inactive)
same,GI50,[46],65.3 µM (inactive)
same,GI50,[47],> 100 µM (inactive)
same,GI50,[48],89.5 µM (inactive)
same,GI50,[49],> 100 µM (inactive)
same,GI50,[50],76.2 µM (inactive)
same,GI50,[51],> 100 µM (inactive)
COc1cc(Br)c(/C=N\c2cccc3ccc(OS(=O)(=O)c4cccc([N+](=O)[O-])c4)cc23)cc1OC,GI50,[1],25.4 µM (inactive)
same,GI50,[2],66.5 µM (inactive)
same,GI50,[3],52.6 µM (inactive)
same,GI50,[4],32.8 µM (inactive)
same,GI50,[5],19.1 µM (inactive)
same,GI50,[6],12.2 µM (inactive)
same,GI50,[7],66.8 µM (inactive)
same,GI50,[8],35.5 µM (inactive)
same,GI50,[9],14.7 µM (inactive)
same,GI50,[52],77.3 µM (inactive)
same,GI50,[11],> 100 µM (inactive)
same,GI50,[12],30.5 µM (inactive)
same,GI50,[13],24.5 µM
same,GI50,[15],> 100 µM (inactive)
same,GI50,[16],34.4 µM (inactive)
same,GI50,[17],2.44 µM (inactive)
same,GI50,[18],34.7 µM (inactive)
same,GI50,[19],58.2 µM (inactive)
same,GI50,[20],21.1 µM (inactive)
same,GI50,[22],30.7 µM (inactive)
same,GI50,[23],29.8 µM (inactive)
same,GI50,[24],14.3 µM (inactive)
same,GI50,[53],36.1 µM (inactive)
same,GI50,[26],8.18 µM (inactive)
same,GI50,[27],36 µM (inactive)
same,GI50,[54],20.4 µM (inactive)
same,GI50,[28],12.5 µM (inactive)
same,GI50,[29],54.8 µM (inactive)
same,GI50,[30],22.1 µM (inactive)
same,GI50,[31],32.7 µM (inactive)
same,GI50,[32],28.1 µM (inactive)
same,GI50,[33],> 100 µM (inactive)
same,GI50,[34],24 µM (inactive)
same,GI50,[35],24 µM (inactive)
same,GI50,[36],16.3 µM (inactive)
same,GI50,[37],19.4 µM (inactive)
same,GI50,[38],20.4 µM (inactive)
same,GI50,[39],16.9 µM (inactive)
same,GI50,[40],6.52 µM (inactive)
same,GI50,[41],39.4 µM (inactive)
same,GI50,[42],27.4 µM (inactive)
same,GI50,[43],> 100 µM (inactive)
same,GI50,[44],33.9 µM (inactive)
same,GI50,[45],60.1 µM (inactive)
same,GI50,[55],12 µM (inactive)
same,GI50,[56],20.2 µM (inactive)
same,GI50,[47],48.1 µM (inactive)
same,GI50,[49],19.1 µM (inactive)
same,GI50,[57],41.1 µM (inactive)
same,GI50,[50],23.1 µM (inactive)
same,GI50,[51],20.1 µM (inactive)
CCc1nc(N)nc(N)c1-c1ccc(Cl)c(N=[N+]=[N-])c1,GI50,[1],3.8 µM (inactive)
same,GI50,[2],16.5 µM (inactive)
same,GI50,[7],11.9 µM (inactive)
same,GI50,[8],5.47 µM (inactive)
same,GI50,[58],12.4 µM (inactive)
same,GI50,[52],5.21 µM (inactive)
same,GI50,[11],8.22 µM (inactive)
same,GI50,[12],1.19 µM (inactive)
same,GI50,[15],0.916 µM (active)
same,GI50,[16],9.53 µM (inactive)
same,GI50,[17],10.7 µM (inactive)
same,GI50,[59],27.4 µM (inactive)
same,GI50,[20],0.531 µM (active)
same,GI50,[21],12.1 µM (inactive)
same,GI50,[22],8.63 µM (inactive)
same,GI50,[23],3.26 µM (inactive)
same,GI50,[24],6.24 µM (inactive)
same,GI50,[53],11.9 µM (inactive)
same,GI50,[60],7.24 µM (inactive)
same,GI50,[61],14.8 µM (inactive)
same,GI50,[62],4.57 µM (inactive)
same,GI50,[54],28.4 µM (inactive)
same,GI50,[28],4.23 µM (inactive)
same,GI50,[30],7.06 µM (inactive)
same,GI50,[63],6.31 µM (inactive)
same,GI50,[31],13.4 µM (inactive)
same,GI50,[32],22.4 µM (inactive)
same,GI50,[33],21.8 µM (inactive)
same,GI50,[35],12.1 µM (inactive)
same,GI50,[37],6.4 µM (inactive)
same,GI50,[38],2.84 µM (inactive)
same,GI50,[39],4.65 µM (inactive)
same,GI50,[40],15.4 µM (inactive)
same,GI50,[41],17.4 µM (inactive)
same,GI50,[42],3.74 µM (inactive)
same,GI50,[43],30.2 µM (inactive)
same,GI50,[44],9.38 µM (inactive)
same,GI50,[46],18.8 µM (inactive)
same,GI50,[55],18.2 µM (inactive)
same,GI50,[47],2.42 µM (inactive)
same,GI50,[64],25.3 µM (inactive)
same,GI50,[49],5.38 µM (inactive)
same,GI50,[65],31 µM (inactive)
